Test results from PMC10740156, “Discovery of potential WEE1 inhibitors via hybrid virtual screening” (Frontiers in Pharmacology, 2023).
Counter-ions that a name gives are not always drawn.

Columns and labels:
WEE1 kinase = WEE1 kinase (Homo sapiens, UniProt P30291); test: Inhibitory activity assay (ADP-Glo kinase assay); type: biochemical; details: for IC50: WEE1 kinase; for Inhibition Rate / inhibition at 25 µM: compound 25 μM, relative inhibition rate, Staurosporine (10 µM) as positive control
Chain of WEE1 kinase (P30291 whole entry): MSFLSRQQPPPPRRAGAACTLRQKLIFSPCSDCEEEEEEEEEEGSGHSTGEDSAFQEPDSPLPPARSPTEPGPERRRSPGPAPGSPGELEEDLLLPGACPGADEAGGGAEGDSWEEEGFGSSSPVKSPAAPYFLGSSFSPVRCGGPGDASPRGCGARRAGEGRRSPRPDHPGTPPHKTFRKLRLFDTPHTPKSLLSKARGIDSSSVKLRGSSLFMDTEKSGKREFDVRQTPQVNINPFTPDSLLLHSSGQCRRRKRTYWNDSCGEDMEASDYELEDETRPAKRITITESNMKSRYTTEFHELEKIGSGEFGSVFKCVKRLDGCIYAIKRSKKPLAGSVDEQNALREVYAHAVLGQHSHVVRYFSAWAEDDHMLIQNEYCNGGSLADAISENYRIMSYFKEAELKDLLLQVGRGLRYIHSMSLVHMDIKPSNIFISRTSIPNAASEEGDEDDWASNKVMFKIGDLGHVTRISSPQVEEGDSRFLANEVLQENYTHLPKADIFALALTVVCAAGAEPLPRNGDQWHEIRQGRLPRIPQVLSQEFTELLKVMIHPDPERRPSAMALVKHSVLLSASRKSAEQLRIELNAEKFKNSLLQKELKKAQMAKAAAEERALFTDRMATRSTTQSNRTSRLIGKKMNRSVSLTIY
Procedure: The tested compounds were dissolved in DMSO to make a 10 mM stock solution, which was further diluted to a drug solution of 25 µM. […] Transfer 20 nL compound to 384 assay plate by Echo 655. […] 8 μL of kinase detection reagent was added to the well, and incubated for 40 min at 25°C. Read the RLU (relative light-emitting unit) signal using the BMG multifunction microplate reader, and the signal intensity is used to characterize the degree of kinase activity. […] Staurosporine is a prototypical ATP-competitive kinase inhibitor in that it binds to many kinases with high affinity. The inhibition rates were calculated using the equations (X: log of inhibitor concentration; Y: % Inhibition). Assays were performed on three independent experiments. Y=Bottom+Top – Bottom/(1+10^ (LogIC50 – X×hillslope))

HuH-7 cells = test: Anti-proliferation activity assay (CCK-8); type: cell-based, human
Procedure: (§1) Anti-proliferation activity assay was detected by Cell Counting Kit-8 detection kit (CCK-8, #K1018) provided by Apexbio (United States). In brief, cells were seeded in 96-wells plates at a density of 3 × 10^3/well for 24 h. Then, cells were treated with indicated concentrations of compounds for 72 h. Supernatant was totally removed, and 100 μL of CCK-8 solution was added to each well and cultured for another 1 h at 37°C. The absorbance of plates was measured by SpectraMax M2 (Molecular Devices, San Jose, CA, United States) at 450 nm. […] Assays were performed on three independent experiments.

PC9 cells [1] = test: Cell cycle analysis (PI staining flow cytometry); type: cell-based, human; details: 500 nM, 24 h, compared to blank group
Procedure: (§2) For cell cycle detection, Cells were harvested and gently washed with PBS, and fixed with 70% cold ethanol −20°C overnight. After centrifugation, Cells were retained for precipitation and incubated with PI/RNase Staining Buffer (BD Bioscience, Oxford, United Kingdom) for 15 min in the dark at 37°C.
(§3) All samples were acquired by flow cytometry (FACS CantoⅡ, BD Bioscience) and analysed with Flowjo software version 10.4.

A549 cells [2] = test: Cell cycle analysis (PI staining flow cytometry); type: cell-based, human; details: 2 μM, 24 h
Procedure: as §2, §3

PC9 cells [3] = test: Cell apoptosis analysis (Annexin V/PI flow cytometry); type: cell-based, human; details: 500 nM, 72 h; for percentage of apoptotic cells (early apoptosis + late apoptosis): blank control 13.24%
Procedure: (§4) For apoptosis detection, Cells were performed with Pharmingen FITC Annexin V Detection KitⅠ(BD Bioscience, Oxford, UK). Briefly, Cells were harvested and washed once with 1×binding buffer and then incubated with Annexin V and Propidium Iodide (PI) for 15 min in the dark at 37°C.
as §3

A549 cells [4] = test: as above; type: cell-based, human; details: 2 μM, 72 h; for percentage of apoptotic cells (early apoptosis + late apoptosis): blank control 9.86%
Procedure: as §4, §3

Bel-7402 cells = test: Anti-proliferation activity assay (CCK-8); type: cell-based; details: Homo sapiens, 72 h
Procedure: as §1

A549 cells [5] = test: Anti-proliferation activity assay (CCK-8); type: cell-based; details: Homo sapiens, 72 h
Procedure: as §1

PC9 cells [6] = test: Anti-proliferation activity assay (CCK-8); type: cell-based; details: Homo sapiens, PC-9, 72 h
Procedure: as §1

## CCN1CCN(Cc2ccc(-c3cc4c(N[C@H](C)c5ccccc5)ncnc4[nH]3)cc2)CC1 [Compound 2, AEE788]
WEE1 kinase
  IC50: 103 nM
  Inhibition Rate: 134.70 ± 1.61%

## Denfivontinib [Compound 1]
WEE1 kinase
  Inhibition Rate: 64.18 ± 1.16%

## COc1cc(-c2cc(-c3ccc(N4CCNCC4)cc3)cnc2C)cc(OC)c1OC [Compound 10, LDN-214117]
WEE1 kinase
  inhibition at 25 µM: 32.77 ± 0.22%

## CN1CCCN(C(=O)c2cccc(-c3ccc(/C=C4/C(=O)Nc5ccc(Cl)cc54)o3)c2)CC1 [Compound 6, CX-6258 hydrochloride]
WEE1 kinase
  inhibition at 25 µM: 24.8 ± 2.33%

## CNS(=O)(=O)c1ccccc1Nc1nc(Nc2ccc(N3CCN(C)CC3)cc2OC)ncc1Cl [Compound 3, ALK inhibitor 2]
WEE1 kinase
  IC50: 988 nM
  Inhibition Rate: 127.17 ± 1.08%

## CNC(=O)c1ccccc1Nc1nc(Nc2ccc(N3CCN(CCCN)CC3)cc2)ncc1Cl [Compound 4, GSK3182571]
HuH-7 cells; 72 h
  IC50: 875 nM
HuH-7 cells; Homo sapiens, Huh-7, 72 h
  IC50: 880 nM
PC9 cells [1]
  proportion of cells in the G1 phase: significantly increased
  proportion of cells in the G2 phase: did not change significantly
A549 cells [2]
  cell cycle distribution: no significant change
WEE1 kinase
  IC50: 1.07 nM
  Inhibition Rate: 126.59 ± 1.66%
PC9 cells [3]
  Q1 (flow cytometry quadrant): 0.014
  Q2% (late apoptosis rate): 4.55%
  Q3% (early apoptosis rate): 80.2%
  Q4 (flow cytometry quadrant): 15.2
  percentage of apoptotic cells (early apoptosis + late apoptosis): 84.75%
A549 cells [4]
  Q2% (late apoptosis rate): 8.55%
  Q3% (early apoptosis rate): 9.18%
  Q4 (flow cytometry quadrant): 82.2
  percentage of apoptotic cells (early apoptosis + late apoptosis): 17.73%
Bel-7402 cells
  IC50: 147 nM
A549 cells [5]
  IC50: 5.17 µM

## C[C@@H](Oc1ccc2[nH]nc(/C=C/c3cnn(CCO)c3)c2c1)c1c(Cl)cncc1Cl [Compound 9, LY2874455]
WEE1 kinase
  inhibition at 25 µM: 58.2 ± 4.03%

## CNC(=O)c1nn(C)c2c1C(C)(C)Cc1cnc(Nc3ccc(N4CCN(C)CC4)cc3)nc1-2 [Compound 5, Milciclib]
HuH-7 cells; Homo sapiens, Huh-7, 72 h
  IC50: 80000 nM
WEE1 kinase
  IC50: 3.77 nM
  Inhibition Rate: 137.84 ± 1.08%
PC9 cells [6]
  IC50: 8.88 µM

## C=CCn1c(=O)c2cnc(Nc3ccc(N4CCN(C)CC4)cc3)nc2n1-c1cccc(C(C)(C)O)n1 [AZD1775, Adavosertib, reference compound]
A549 cells [2]
  cell cycle distribution: no significant change
PC9 cells [3]
  Q1 (flow cytometry quadrant): 0.015
  Q2% (late apoptosis rate): 5.20%
  Q3% (early apoptosis rate): 22.0%
  Q4 (flow cytometry quadrant): 72.8
  percentage of apoptotic cells (early apoptosis + late apoptosis): 27.20%
A549 cells [4]
  Q2% (late apoptosis rate): 5.52%
  Q3% (early apoptosis rate): 11.1%
  Q4 (flow cytometry quadrant): 83.3
  percentage of apoptotic cells (early apoptosis + late apoptosis): 16.62%

## CCN1CCN(C(=O)Cc2ccc(Nc3ncc(F)c(Nc4ccc(C(=O)Nc5ccccc5Cl)cc4)n3)cc2)CC1 [Compound 8, TCS7010]
WEE1 kinase
  IC50: 797 nM
  Inhibition Rate: 95.45 ± 2.24%
  inhibition at 25 µM: ~100%
